The target in one data set is T1, Lipolase (Thermomyces lanuginosus, UniProt O59952).
T1 sequence (O59952 23-291): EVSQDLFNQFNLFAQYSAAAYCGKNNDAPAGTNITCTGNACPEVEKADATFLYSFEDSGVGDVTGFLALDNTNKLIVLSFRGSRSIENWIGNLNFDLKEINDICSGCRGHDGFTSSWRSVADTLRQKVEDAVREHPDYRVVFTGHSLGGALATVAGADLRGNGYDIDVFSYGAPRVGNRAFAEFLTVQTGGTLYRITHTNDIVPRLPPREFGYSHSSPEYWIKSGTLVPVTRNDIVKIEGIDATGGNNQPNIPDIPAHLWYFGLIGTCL
Nature of the data set: Enzyme stability: Lipolase-catalyzed hydrolysis monitored by pH-stat titration. The class given is biochemical. Conditions: for MEAN SLOPE: Tris-HCl pH 8.0, 30° C., acid production titrated with 0.1N NaOH; for STABILITY / REL VELOCITY: Lipolase hydrolysis; for STABILITY: fold relative to α-methyl D-glucose monolaurate; for REL VELOCITY: relative to α-methyl D-glucose monolaurate = 100. Here is the method:
Enzyme catalyzed hydrolysis of uronates was monitored using a TitraLab (Radiometer, Copenhagen) pH-stat autotitrator. Emulsified substrate was prepared by mixing water (5 mL), 1-butanol (1 mL), acacia gum (1 g), and substrate (0.357 mmoles) using a homogenizer (Omni-mixer, OCI Instruments)for 15 minutes. Emulsified substrate (5 mL) was mixed with Tris-HCl buffer (20 mL, 100 mM, pH 8.0) and equilibrated at 30° C. in a thermostatic reaction cup. Lipolase (20.5 LU) was added to initiate the reaction and the production of acid was monitored by titration with 0.1N NaOH.

Data set [1] is described as follows: Wash cycle stability (t1/2) by automatic titrator. The format is physicochemical. The following applies: 40° C., pH=10, 8.13×10^-3 M concentration; 8130 µM. As to the method:
The wash cycle stability or half-life (t1/2) of decyl(methyl α-D-galactopyranosid)uronate was determined using an automatic titrator at 40° C., pH=10, 8.13×10^-3 M concentration.

As to `CCCCCCOC(=O)[C@H]1O[C@H](OC)[C@H](O)[C@@H](O)[C@H]1O` [Hexyl(Methyl α-D-Galactopyranosid)uronate], at Lipolase (Lipolase 20.5 LU, pH 8.0, 30° C.), the “Enzyme stability to lipolase hydrolysis (in words)” value is given as “very stable/slow hydrolysis”.
Turning to `CCCCCCCCCCOC(=O)[C@H]1O[C@@H](OC)[C@H](O)[C@@H](O)[C@H]1O` [Decyl(Methyl β-D-Galactopyranosid)uronate], on Lipolase (Lipolase 20.5 LU), the “MEAN SLOPE” value was 0.7101. At Lipolase, the STABILITY came to 5.6 X and the “REL VELOCITY” value is 18.
Regarding `CCCCCCCCCCCC(=O)OC[C@H]1OC(O)[C@H](O)[C@@H](O)[C@@H]1O` (stereo partly drawn) [D-Glucose Mono-laurate, D-glucose monolaurate], the “MEAN SLOPE” value on Lipolase (Lipolase 20.5 LU) is recorded as 1.6880. Moreover, on Lipolase, the STABILITY is on record as 2.4 X and the “REL VELOCITY” value is recorded as 42.
Turning to `CCCCCCCCCCOC(=O)[C@H]1O[C@H](OC)[C@H](O)[C@@H](O)[C@H]1O` [Decyl(Methyl α-D-Galactopyranosid)uronate], in data set [1], the “Wash cycle stability or half-life (t1/2)” value stood at 7.9 h.
Turning to `CCCCCCCCCCCC(=O)OC[C@H]1O[C@H](OC)[C@H](O)[C@@H](O)[C@@H]1O` [α-Methyl D-Glucose Monolaurate, α-methyl D-glucose monolaurate], the “MEAN SLOPE” value at Lipolase (Lipolase 20.5 LU) was 3.9921. Further, at Lipolase, the STABILITY is given as 1 X and the “REL VELOCITY” value was found to be 100.

The values above are taken from patent US5728670A, “Enzymatically stable alkyl (alkyl glycosid) uronates as nonionic surfactants and a process for their manufacture” (Lever Brothers Company, Division of Conopco, Inc., priority 1993, dated 1998).
